Measured values published in patent US20210113540A1, “TREATMENT AGENT AND PHARMACEUTICAL COMPOSITION FOR GLIOMA” (NATIONAL UNIVERSITY CORPORATION HOKKAIDO UNIVERSITY, priority 2018, published 2021).
Like-named read-outs stand apart in the source and are kept apart here.

Test system: Glioma-initiating cell E6R
Assay: Cell growth test (MTT) on GICR strain E6R
Type: cell-based
Settings: Homo sapiens, 72 h
Experimental: GICR strain: Cell growth test was performed using E6R (Stem Cells. 2016 August; 34(8):2016-25.).
Cell culture solutions were obtained by mixing a medium prepared by adding various compounds, bFGF (Peprotech, 100-18B) and EGF (Peprotech, 100-15) to DMEM/Ham's F-12 medium (SIGMA, D8062) and a medium prepared by adding FCS (Hyclone, SH30910.03) to DMEM medium (Nacalai tesque, 08458-45) to a concentration of 10% for use.
Each compound adjusted to a predetermined concentration was dispensed into a 96-well plate (Falcon, 353072) at 80 μL/well, and E6 cells and E6R cells were seeded on the 96-well plate at 1000 cells/80 μL/well. After 3 days, 10 μL of an MTT reagent (DOJINDO, 341-01823) was added, the cells were incubated at 37° C. for 3 hours, the culture solution was removed, and 100 μL of DMSO was added. The absorbance at 570 nm was measured using Bio-Rad iMark (Bio-Rad, 168-1130JA). The growth inhibition rate at each test compound concentration was calculated by the following formula using the absorbance as an index of the viable cell count.
The growth inhibition rate at each compound concentration was determined, and the 50% growth inhibition concentration GI50 (μmol/L)] was calculated using XLfit. Growth inhibition rate (%)=(Amount of luminescence from wells supplemented with test compound)/(Amount of luminescence from wells supplemented with DMSO)×100
GIC and GICR strain: Cell growth test was performed using E6, E6R, E16, and E16R (Stem Cells. 2016 August; 34(8): 2016-25.).

[1] = MTT after 3 days, read-out: ER6 GI50
[2] = class of ER6 GI50, MTT after 3 days, read-out: Evaluation

Structure (SMILES) | GI50 [1] [nM] | GI50 [2] [nM]
Cn1ccc2cc(Nc3ncc(C4CC4)cc3C(=O)O)cc(-c3ccc(OC(F)(F)F)cc3)c21 [Compound 7, 5-cyclopropyl-2-((1-methyl-7-(4-(trifluoromethoxy)phenyl)-1H-indole-5-yl)amino)nicotinic acid] | < 0.14 | < 1000
Cn1ccc2cc(Nc3ncc(C4CC4)cc3C(=O)O)cc(C3=CCOCC3)c21 [Compound 15, 5-cyclopropyl-2-((7-(3,6-dihydro-2H-pyran-4-yl)-1-methyl-1H-indole-5-yl)amino)nicotinic acid] | 25.9 | < 1000
O=C(O)c1cc(C2CC2)ccc1Nc1cccc2c1ccc(=O)n2-c1ccccc1 [Compound 19, 5-cyclopropyl-2-((2-oxo-1-phenyl-1,2-dihydroquinoline-5-yl)amino)benzoic acid] | 5.8 | < 1000
O=C(O)c1cc(C2CC2)cnc1Nc1c(F)cc2c(ccn2Cc2ccccc2)c1F [Compound 14, 2-((1-benzyl-4,6-difluoro-1H-indole-5-yl)amino)-5-cyclopropylnicotinic acid] | 47.6 | < 1000
O=C(O)c1cc(C2CC2)cnc1Nc1ccc2c(ccn2-c2cccc(F)c2)c1 [Compound 12, 5-cyclopropyl-2-((1-(3-fluorophenyl)-1H-indole-5-yl)amino)nicotinic acid] | 23.9 | < 1000
Cn1ccc2cc(Nc3ncc(C4CC4)cc3C(=O)O)cc(-c3cccc(Cl)c3)c21 [Compound 6, 2-((7-(3-chlorophenyl)-1-methyl-1H-indole-5-yl)amino)-5-cyclopropylnicotinic acid] | 2.23 | < 1000
O=C(O)c1cc(C2CC2)cnc1Nc1cc2ccn(Cc3ccccc3)c2cc1F [Compound 13, 2-((1-benzyl-6-fluoro-1H-indole-5-yl)amino)-5-cyclopropylnicotinic acid] | 11.4 | < 1000
O=C(O)c1cc(C2CC2)cnc1Nc1cccc2c(-c3ccccc3)cccc12 [Compound 9, 5-cyclopropyl-2-((5-phenylnaphthalene-1-yl)amino)nicotinic acid] | 4.35 | < 1000
Cn1ccc2cc(Nc3ncc(C4CC4)cc3C(=O)O)cc(C3=CCCCC3)c21 [Compound 20] | 0.36 | < 1000
Cn1ccc2cc(Nc3ncc(C4CC4)cc3C(=O)O)cc(-c3ccccc3)c21 [Compound 11, 5-cyclopropyl-2-((1-methyl-7-phenyl-1H-indole-5-yl)amino)nicotinic acid] | 4.77 | < 1000
O=C(O)c1cc(C2CC2)cnc1Nc1ccc2c(-c3ccccc3)nccc2c1 [Compound 16, 5-cyclopropyl-2-((1-phenylisoquinoline-6-yl)amino)nicotinic acid] | 3.19 | < 1000
O=C(O)c1cc(C2CC2)cnc1Nc1cccc2c1ccn2-c1ccccc1 [Compound 3, 5-cyclopropyl-2-((1-phenyl-1H-indole-4-yl)amino)nicotinic acid] | 11 | < 1000
O=C(O)c1cc(C2CC2)cnc1Nc1ccc2c(-c3ccccc3)cccc2c1 [Compound 10, 5-cyclopropyl-2-((5-phenylnaphthalene-2-yl)amino)nicotinic acid] | 1.77 | < 1000
Cn1ccc2cc(Nc3ncc(C4CC4)cc3C(=O)O)cc(-c3ccc(C#N)cc3)c21 [Compound 17, 2-((7-(4-cyanophenyl)-1-methyl-1H-indole-5-yl)amino)-5-cyclopropylnicotinic acid] | 2.96 | < 1000
O=C(O)c1cc(C2CC2)ccc1Nc1ccc2c(cnn2Cc2ccccc2)c1 [Compound 1, 2-((1-benzyl-1h-indazole-5-yl)amino)-5-cyclopropylbenzoate] | 30.6 | < 1000
Cn1ccc2cc(Nc3ncc(C4CC4)cc3C(=O)O)cc(-c3ccc(C(F)(F)F)cc3)c21 [Compound 5] | < 0.14 | < 1000
